The assay has as its system breast line MDA468. In words: In vitro cell culture growth assay (MTS), MDA468. In kind it is cell-based, human. The conditions noted are these: MDA468 cells, three days after drug treatment. How it is done: Human tumor cell lines used include prostate lines LNCap and PC3MM2, breast lines MDA468, MCF7, renal line HTB44 (A498), colon line HCT116, and ovarian line OVCAR3. Cells were plated in 96-well culture plates. One day following plating, the inhibitors were added to cells. Three days after drug treatment, viable cell densities were determined by metabolic conversion (by viable cells) of the dye MTS, a well established cell proliferation assay. The assays were performed using an assay kit purchased from Promega Corp. (Madison, Wis.) following the protocol supplied with the kit. The MTS assay results were read in a 96-well plate reader by measuring absorbance at 490 nm. The effect of each treatment was calculated as percent of control growth relative to the vehicle-treated cells grown in the same culture plate.

Take `CONC(=O)Nc1ccc(-c2nc(N3CCOCC3)c3cnn(C4CCN(Cc5ccccc5)CC4)c3n2)cc1` [Compound 286, 1-{4-[1-(1-benzylpiperidin-4-yl)-4-morpholin-4-yl-1H-pyrazolo[3,4-d]pyrimidin-6-yl]phenyl}-3-methoxyurea]: for the setting “Homo sapiens, 72 h”, half-maximal inhibition (IC50) was put at 200 nM. Consider `CN(C)NC(=O)Nc1ccc(-c2nc(N3CCOCC3)c3cnn(C4CCN(Cc5ccccc5)CC4)c3n2)cc1` [Compound 290, N-{4-[1-(1-benzylpiperidin-4-yl)-4-morpholin-4-yl-1H-pyrazolo[3,4-d]pyrimidin-6-yl]phenyl}-2,2-dimethylhydrazinecarboxamide], for which, under “Homo sapiens, 72 h”, 8000 nM corresponded to half-maximal inhibition (IC50). In turn, `CN1CCC(NC(=O)Nc2ccc(-c3nc(N4CCOCC4)c4cnn(C5CCN(Cc6ccccc6)CC5)c4n3)cc2)CC1` [Compound 517, 1-{4-[1-(1-benzylpiperidin-4-yl)-4-morpholin-4-yl-1H-pyrazolo[3,4-d]pyrimidin-6-yl]phenyl}-3-(1-methylpiperidin-4-yl)urea] had an IC50 (Homo sapiens, 72 h) of 1200 nM.

Compound `O=C(Nc1ccc(-c2nc(N3CCOCC3)c3cnn(C4CCN(Cc5ccccc5)CC4)c3n2)cc1)Nc1ncc[nH]1` [Example 326, 1-{4-[1-(1-benzylpiperidin-4-yl)-4-morpholin-4-yl-1H-pyrazolo[3,4-d]pyrimidin-6-yl]phenyl}-3-(1H-imidazol-2-yl)urea] returned an IC50 (Homo sapiens, 72 h) of 3500 nM. Take `CC(C)(C)OC(=O)N1CCC(n2ncc3c(N4CCOCC4)nc(-c4ccc(NC(=O)NCCF)cc4)nc32)CC1` [Compound 765, tert-butyl 4-[6-(4-{[(2-fluoroethyl)carbamoyl]amino}phenyl)-4-morpholin-4-yl-1H-pyrazolo[3,4-d]pyrimidin-1-yl]piperidine-1-carboxylate]: the IC50 (Homo sapiens, 72 h) was found to be 360 nM.

Compound `CONC(=O)Nc1ccc(-c2nc(N3CCOCC3)c3cnn(C4CCN(Cc5ccccc5)CC4)c3n2)cc1` [Compound 532, 1-{4-[1-(1-benzylpiperidin-4-yl)-4-morpholin-4-yl-1H-pyrazolo[3,4-d]pyrimidin-6-yl]phenyl}-3-methoxyurea] showed an IC50 (Homo sapiens, 72 h) of 160 nM. `CN1CCC(NC(=O)Nc2ccc(-c3nc(N4CCOCC4)c4cnn(C5CCN(Cc6ccccc6)CC5)c4n3)cc2)CC1` [Compound 272] came in with an IC50 (Homo sapiens, 72 h) of 1200 nM. Compared with the last compound, the IC50 is about 7.5-fold higher.

Consider `COC(=O)N1CCC(n2ncc3c(N4CCOCC4)nc(-c4ccc(N)cc4)nc32)CC1` [Compound 741, methyl 4-[6-(4-aminophenyl)-4-morpholin-4-yl-1H-pyrazolo[3,4-d]pyrimidin-1-yl]piperidine-1-carboxylate], for which the IC50 (Homo sapiens, 72 h) was 12000 nM. This IC50 lies about 10-fold higher than the previous one. On the same count and under the same terms, in the case of `O=C(Nc1ccc(-c2nc(N3CCOCC3)c3cnn(C4CCN(Cc5ccccc5)CC4)c3n2)cc1)NC1CC1` [Compound 556, 1-{4-[1-(1-benzylpiperidin-4-yl)-4-morpholin-4-yl-1H-pyrazolo[3,4-d]pyrimidin-6-yl]phenyl}-3-cyclopropylurea] it was 1050 nM; in that of `COC(=O)N1CCC(n2ncc3c(N4CCOCC4)nc(-c4ccc(NC(=O)Nc5ccc(CCN6CCOCC6)cc5)cc4)nc32)CC1` [Compound 918, methyl 4-{4-morpholin-4-yl-6-[4-({[4-(2-morpholin-4-ylethyl)phenyl]carbamoyl}amino)phenyl]-1H-pyrazolo[3,4-d]pyrimidin-1-yl}piperidine-1-carboxylate], 180 nM. Take `CN(C)NC(=O)Nc1ccc(-c2nc(N3CCOCC3)c3cnn(C4CCN(Cc5ccccc5)CC4)c3n2)cc1` [Compound 536, N-{4-[1-(1-benzylpiperidin-4-yl)-4-morpholin-4-yl-1H-pyrazolo[3,4-d]pyrimidin-6-yl]phenyl}-2,2-dimethylhydrazinecarboxamide]: for the setting “Homo sapiens, 72 h”, half-maximal inhibition (IC50) required 8000 nM. For the setting “Homo sapiens, 72 h”, `CN(C)C(=O)Nc1ccc(-c2nc(N3CCOCC3)c3cnn(C4CCN(Cc5ccccc5)CC4)c3n2)cc1` [Compound 205] yielded an IC50 of 8000 nM. `CC(C)(C)OC(=O)N1CCC(n2ncc3c(N4CCOCC4)nc(-c4ccc(NC(=O)NC5CC5)cc4)nc32)CC1` [Compound 767, tert-butyl 4-(6-{4-[(cyclopropylcarbamoyl)amino]phenyl}-4-morpholin-4-yl-1H-pyrazolo[3,4-d]pyrimidin-1-yl)piperidine-1-carboxylate] displayed an IC50 (Homo sapiens, 72 h) of 700 nM. `CNC(=O)Nc1ccc(-c2nc(N3CCOCC3)c3cnn(C4CCN(C(=O)OC)CC4)c3n2)cc1` [Compound 720, methyl 4-(6-{4-[(methylcarbamoyl)amino]phenyl}-4-morpholin-4-yl-1H-pyrazolo[3,4-d]pyrimidin-1-yl)piperidine-1-carboxylate] showed an IC50 of 95 nM. That is a double-digit nanomolar value. Under “Homo sapiens, 72 h”, `O=C(Nc1ccc(-c2nc(N3CCOCC3)c3cnn(C4CCN(Cc5cccnc5)CC4)c3n2)cc1)OCCO` [Compound 924, 2-hydroxyethyl (4-{4-morpholin-4-yl-1-[1-(pyridin-3-ylmethyl)piperidin-4-yl]-1H-pyrazolo[3,4-d]pyrimidin-6-yl}phenyl)carbamate] came in with an IC50 of 110 nM.

As for `CNC(=O)Nc1ccc(-c2nc(N3CCOCC3)c3cnn(C4CCN(C(=O)OC)CC4)c3n2)cc1` [Compound 721, methyl 4-(6-{4-[(methylcarbamoyl)amino]phenyl}-4-morpholin-4-yl-1H-pyrazolo[3,4-d]pyrimidin-1-yl)piperidine-1-carboxylate], half-maximal inhibition (Homo sapiens, 72 h) (IC50) was put at 80 nM.

In turn, `COC(=O)N1CCC(n2ncc3c(N4CCOCC4)nc(-c4ccc(NC(=O)Nc5ccc(CCN6CCN(C)CC6)cc5)cc4)nc32)CC1` [Compound 917, methyl 4-(6-{4-[({4-[2-(4-methylpiperazin-1-yl)ethyl]phenyl}carbamoyl)amino]phenyl}-4-morpholin-4-yl-1H-pyrazolo[3,4-d]pyrimidin-1-yl)piperidine-1-carboxylate] returned an IC50 (Homo sapiens, 72 h) of 60 nM. The same measure, in the same setting: in the case of `COC(=O)N1CCC(n2ncc3c(N4CCOCC4)nc(-c4ccc(NC(=O)NC5CC5)cc4)nc32)CC1` [Compound 734, methyl 4-(6-{4-[(cyclopropylcarbamoyl)amino]phenyl}-4-morpholin-4-yl-1H-pyrazolo[3,4-d]pyrimidin-1-yl)piperidine-1-carboxylate] it was 150 nM. For `O=C(Nc1ccc(-c2nc(N3CCOCC3)c3cnn(C4CCN(Cc5ccccc5)CC4)c3n2)cc1)NC1CC1` [Example 311, 1-{4-[1-(1-benzylpiperidin-4-yl)-4-morpholin-4-yl-1H-pyrazolo[3,4-d]pyrimidin-6-yl]phenyl}-3-cyclopropylurea], under “Homo sapiens, 72 h”, 1100 nM corresponded to half-maximal inhibition (IC50). Against the preceding compound, the IC50 is about 7.3-fold higher. Take `CNC(=O)Nc1ccc(-c2nc(N3CCOCC3)c3cnn(C4CCN(C(=O)OC(C)(C)C)CC4)c3n2)cc1` [Compound 583, tert-butyl 4-(6-{4-[(methylcarbamoyl)amino]phenyl}-4-morpholin-4-yl-1H-pyrazolo[3,4-d]pyrimidin-1-yl)piperidine-1-carboxylate]: 450 nM corresponded to half-maximal inhibition (IC50). Regarding `CNC(=O)Nc1ccc(-c2nc(N3CCOCC3)c3cnn(C4CCN(C(=O)OC(C)C)CC4)c3n2)cc1` [Compound 752, isopropyl 4-(6-{4-[(methylcarbamoyl)amino]phenyl}-4-morpholin-4-yl-1H-pyrazolo[3,4-d]pyrimidin-1-yl)piperidine-1-carboxylate], the IC50 (Homo sapiens, 72 h) was 53 nM. That is a double-digit nanomolar value.

Consider `CNC(=O)Nc1ccc(-c2nc(N3CCOCC3)c3cnn(C4CCN(C(=O)OC(C)(C)C)CC4)c3n2)cc1` [Compound 582, tert-butyl 4-(6-{4-[(methylcarbamoyl)amino]phenyl}-4-morpholin-4-yl-1H-pyrazolo[3,4-d]pyrimidin-1-yl)piperidine-1-carboxylate], for which the IC50 was 210 nM. This lies in the sub-micromolar range. Compound `CCNC(=O)Nc1ccc(-c2nc(N3CCOCC3)c3cnn(C4CCN(Cc5ccccc5)CC4)c3n2)cc1` [Example 253, 1-{4-[1-(1-benzylpiperidin-4-yl)-4-morpholin-4-yl-1H-pyrazolo[3,4-d]pyrimidin-6-yl]phenyl}-3-ethylurea] gave an IC50 (Homo sapiens, 72 h) of 400 nM. As for `O=C(Nc1ccc(-c2nc(N3CCOCC3)c3cnn(C4CCN(Cc5ccccc5)CC4)c3n2)cc1)Nc1ncc[nH]1` [Compound 570, 1-{4-[1-(1-benzylpiperidin-4-yl)-4-morpholin-4-yl-1H-pyrazolo[3,4-d]pyrimidin-6-yl]phenyl}-3-(1H-imidazol-2-yl)urea], half-maximal inhibition (Homo sapiens, 72 h) (IC50) was put at 3500 nM.

The compound `COC(=O)N1CCC(n2ncc3c(N4CCOCC4)nc(-c4ccc(NC(=O)Nc5ccccc5)cc4)nc32)CC1` [Compound 735, methyl 4-(6-{4-[(anilinocarbonyl)amino]phenyl}-4-morpholin-4-yl-1H-pyrazolo[3,4-d]pyrimidin-1-yl)piperidine-1-carboxylate] registered an IC50 (Homo sapiens, 72 h) of 80 nM. The same measure, in the same setting: in the case of `CCNC(=O)Nc1ccc(-c2nc(N3CCOCC3)c3cnn(C4CCN(Cc5ccccc5)CC4)c3n2)cc1` [Compound 499, 1-{4-[1-(1-benzylpiperidin-4-yl)-4-morpholin-4-yl-1H-pyrazolo[3,4-d]pyrimidin-6-yl]phenyl}-3-ethylurea] it was 350 nM; in that of `COC(=O)Nc1ccc(-c2nc(N3CCOCC3)c3cnn(C4CCN(Cc5cccnc5)CC4)c3n2)cc1` [Example 209, methyl (4-{4-morpholin-4-yl-1-[1-(pyridin-3-ylmethyl)piperidin-4-yl]-1H-pyrazolo[3,4-d]pyrimidin-6-yl}phenyl)carbamate], 1500 nM; in that of `CNC(=O)Nc1ccc(-c2nc(N3CCOCC3)c3cnn(C4CCN(C(=O)OC(C)(C)C)CC4)c3n2)cc1` [Example 337, tert-butyl 4-(6-{4-[(methylcarbamoyl)amino]phenyl}-4-morpholin-4-yl-1H-pyrazolo[3,4-d]pyrimidin-1-yl)piperidine-1-carboxylate], 300 nM.

The compound `O=C(NCCF)Nc1ccc(-c2nc(N3CCOCC3)c3cnn(C4CCN(Cc5ccccc5)CC4)c3n2)cc1` [Compound 534, 1-{4-[1-(1-benzylpiperidin-4-yl)-4-morpholin-4-yl-1H-pyrazolo[3,4-d]pyrimidin-6-yl]phenyl}-3-(2-fluoroethyl)urea] yielded an IC50 (Homo sapiens, 72 h) of 27.4 nM.

The record behind these values is US20080234262A1 (Wyeth, priority 2007, published 2008).
